Reference: patent US20250136601A1 (priority 2022, published 2025)
“And” between values parts separate entries of the source, which are not always exact repeats. Identical values can stand only once. Like-named read-outs stand apart in the source and are kept apart here.

Key:
5-HT2A receptor [1] = molecular target: T1, 5-HT2A receptor (Homo sapiens (Human), UniProt P28223); assay: radioligand competitive binding assay, [3H]-LSD, 293T membranes
5-HT2A receptor [2] = molecular target: T1, 5-HT2A receptor; assay: cell-based; format: cell-based; conditions: for Emax: HEK-293T, read-out: β-arrestin2 signaling agonistic activity (percentage in parentheses); for pathway selectivity: β-arrestin2 recruitment versus G protein signaling: without activating the G protein signaling pathway; for Gq signaling agonistic activity (percentage in parentheses): value in parentheses
Procedure: On the second day, the confluent cells from a 6 cm culture dish were digested and reseeded into a 96-well plate at a volume of 100 μL of culture medium per well. On the third day, the drugs were added for testing. The 96-well plate was taken out from the cell incubator to decant the culture medium. 40 μL of the substrate coelenterazine 400a (final concentration 5 μM) was added to each well, and then 20 μL of different drugs were added sequentially from left to right, ensuring that the final concentration of the drug decreased gradually from bottom to top, with two replicates per treatment. Finally, the prepared samples were loaded on a plate reader for signal quantification. The readout values reflected the recruitment of β-arrestin2 to the membrane or the dissociation of G protein trimer. The former indicated the degree of activation of the downstream β-arrestin2 signaling pathway mediated by the 5-HT2A receptor, and the latter indicated the degree of activation of the downstream G protein signaling pathway mediated by the 5-HT2A receptor.

dopamine D2 receptor = dopamine D2 receptor (Homo sapiens (Human), UniProt P14416); assay: radioligand competitive binding assay, [3H]-Methylspiperone, 293T membranes; conditions: affinity for the dopamine D2 receptor
Chain of dopamine D2 receptor (P14416 whole entry, species assumed): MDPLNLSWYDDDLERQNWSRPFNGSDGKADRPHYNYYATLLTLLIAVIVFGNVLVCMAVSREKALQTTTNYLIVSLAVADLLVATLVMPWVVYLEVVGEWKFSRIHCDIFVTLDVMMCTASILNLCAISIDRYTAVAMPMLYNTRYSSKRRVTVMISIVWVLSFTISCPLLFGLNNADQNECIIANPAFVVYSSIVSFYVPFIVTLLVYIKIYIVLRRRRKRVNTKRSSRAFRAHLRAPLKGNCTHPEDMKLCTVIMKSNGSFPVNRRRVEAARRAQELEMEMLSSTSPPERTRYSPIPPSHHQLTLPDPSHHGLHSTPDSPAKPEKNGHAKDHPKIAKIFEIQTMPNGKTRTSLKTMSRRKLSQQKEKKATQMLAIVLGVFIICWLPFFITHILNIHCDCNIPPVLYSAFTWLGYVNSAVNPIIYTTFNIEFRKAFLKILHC
Procedure: Method: The affinity of the compounds of the present disclosure for the dopamine D2 receptor was determined using a radioligand competitive binding assay as follows. In the first step, a cell membrane component containing dopamine D2 receptor was prepared. […] 48 hours post-transfection, the 10 cm culture dish was taken out from the cell incubator and the cultured cells had expressed the dopamine D2 receptor. The culture medium was aspirated using a vacuum pump, and 3 mL of lysis buffer was added to each culture dish. The cells were then placed in a cold room at 4° C. for 10 minutes. After the cells were detached, they were transferred to a 15 mL centrifuge tube and centrifuged at 1500 rpm for 5 minutes at 4° C., and the supernatant was discarded. The cell pellet was transferred to a tissue homogenizer, and 3 mL of lysis buffer was added. Sufficient grinding was applied to break the cells. The cell suspension was then equally aliquoted into several Eppendorf tubes and centrifuged at 12000 rpm for 5 minutes at 4° C., and the supernatant was discarded. The resulting precipitate was the cell membrane component containing the dopamine D2 receptor. […] The machine readout value reflected the amount of [3H]-Methylspiperone bound on the membrane, and after further data processing, the affinity Ki values of different compounds for the dopamine D2 receptor were obtained.

[3] = test system: head-twitch response in mice; format: in vivo, C57BL/6J mice; conditions: intraperitoneal, at all doses tested, first 30 minutes
Description: Method: The head-twitch response in mice was detected via oscillatory signals to characterize hallucinogenic effects. Mice (strain C57BL/6J, purchased from Shanghai Lingchang Biotech Co., Ltd.) were anesthetized with 2% isoflurane. A small portion of the scalp was removed from the center of the dorsal cranium. A custom-made small neodymium magnet (4 mm×4 mm×2 mm) was attached to the center of the dorsal cranium using dental resin. The magnet N-S poles were kept parallel to the dorsoventral aspect of the implant. The mice were allowed to recover for 1 week before testing. To record precise head movements, the mice were placed in a glass beaker with a diameter of 12 cm, surrounded by 150 turns of #30 enameled copper wire. The output signal from the coil was recorded using a PowerLab/4SP instrument installed with LabChart V8.1.16 software. Coil voltage was amplified, low-pass filtered at 10 kHz to remove radio frequency interference, and sampled at 40 kHz. For the detection of head-twitch response in mice, LabChart data were processed with a digital band-pass filter at 40 to 200 Hz. The head-twitch response in mice was identified by searching for sinusoidal wavelets that met the following criteria: 1) containing more than two bipolar peaks; 2) amplitude exceeding background noise level; 3) duration less than 120 milliseconds. 1 hour prior to the test, the mice were transferred to the test room for acclimatization. Subsequently, the mice were placed in the beaker for 30 minutes, and baseline head-twitch response values were recorded. Immediately after baseline recording, the mice were injected intraperitoneally with the test compound, and head-twitch response values were recorded for 1 to 2 hours post-dose, depending on the compound used. Statistical values were taken from the first 30 minutes.

in vivo = conditions: male, C57, mouse, ip
Procedure: (§1) The concentration of the compound in mouse plasma was determined using LC-MS/MS, and the relevant pharmacokinetic parameters were calculated to investigate the pharmacokinetic characteristics of the compound in mice.
(§2) Experimental design: 60 male C57 mice (purchased from Suzhou JOINN Laboratory Animal Co., Ltd.) were randomly divided into groups based on weight, with 3 mice per group. The mice were fasted with water ad libitum for 12 to 14 hours one day before test-article administration and fed 4 hours after the administration. The route of administration was intraperitoneal (IP), with a dosing concentration of 1 mg/mL, and a solvent formulation of 10% DMSO+90% saline.
(§3) Sample collection: 0.1 mL of blood was collected from the orbit under isoflurane anesthesia before and after test-article administration, transferred to EDTA K2 tubes, and placed on an ice bath. The samples were centrifuged at 5000 rpm for 10 minutes at 4° C., and the plasma was collected. […] Prior to analysis, all plasma samples were stored at −80° C.
(§4) Data processing: Drug concentrations in plasma and brain tissues were measured using LC-MS (API4000QTRAP triple quadrupole tandem mass spectrometer, equipped with an electrospray ionization source (ESI)). The data collection and control system software utilized was Analyst 1.5.1 (Applied Biosystems). The sample peak integration in the spectrum was conducted automatically; the ratio of the sample peak area to the internal standard peak area was used as an indicator to perform regression with the concentration of the sample. Regression method: Linear regression with a weighting factor of 1/X^2. Pharmacokinetic parameters were analyzed using a non-compartmental model in WinNonlin Professional v6.3 (Pharsight, USA). Cmax is the measured maximum plasma concentration, the area under the plasma concentration-time curve (AUC(0→0)) was calculated by the trapezoidal method, and Tmax is the time to reach peak plasma concentration after administration. Experimental data are presented as “Mean±Standard Deviation” (Mean±SD, n≥3) or “Mean” (n=2).

[4] = for AUMC0-inf / AUMC0-t / Kel: mice
Procedure: as §1, §2, §3, §4

[5] = test system: corticosterone-exposed mice; assay: tail suspension test after 21 days of corticosterone exposure; format: in vivo, Male C57BL/6 mice
Procedure: Antidepressant efficacy test method: Male C57BL/6 mice (8 weeks old, purchased from Shanghai Lingchang Biotech Co., Ltd.) were administered a solution of corticosterone in their drinking water at a concentration of 25 μg/mL using drinking water bottles for 21 days. Mice were maintained on a 12-hour light cycle. Corticosterone-containing drinking water was refreshed every other day for the first two weeks, and gradually replaced with corticosterone-free drinking water every two days for the last week. […] TST procedure: mice in the control group and the administration group were suspended by their tails with tape for 6 minutes, and their behavior was recorded by a video camera. The immobility time during the last 4 minutes was manually timed and assessed by an observer who was unaware of the treatment conditions.

[6] = affinity for the 5-HT2A receptor, [3H]-LSD
[7] = first value of cell, NA = no agonistic activity, read-out: Gq signaling agonistic activity (potency)
[8] = first value of cell, NA = no agonistic activity, read-out: β-arrestin2 signaling agonistic activity (potency)

T1 sequence (P28223 whole entry): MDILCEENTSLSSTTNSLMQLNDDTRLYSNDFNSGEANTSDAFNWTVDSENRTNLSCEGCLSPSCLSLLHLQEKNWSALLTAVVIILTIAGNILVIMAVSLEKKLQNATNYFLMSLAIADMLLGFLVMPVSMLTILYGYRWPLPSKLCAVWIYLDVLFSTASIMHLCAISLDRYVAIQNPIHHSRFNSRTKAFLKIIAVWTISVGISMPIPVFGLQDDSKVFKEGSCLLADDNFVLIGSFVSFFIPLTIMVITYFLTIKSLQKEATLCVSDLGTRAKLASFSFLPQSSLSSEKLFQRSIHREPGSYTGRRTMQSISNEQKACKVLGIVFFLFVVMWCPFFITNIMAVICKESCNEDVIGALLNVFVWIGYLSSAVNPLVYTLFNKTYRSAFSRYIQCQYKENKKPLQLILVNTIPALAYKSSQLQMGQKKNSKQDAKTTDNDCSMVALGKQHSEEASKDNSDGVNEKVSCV

## COc1ccccc1CCN1CC[C@@H]2[C@H](C1)c1cccc3c1N2CCCN3C (single isomer, unassigned) [Compound I-13]
5-HT2A receptor [1]
  Ki: < 100 nM
5-HT2A receptor [1]; [6]
  Ki: 34 nM
5-HT2A receptor [2]
  EC50: 181 nM
  Emax: 51.4%
  pathway selectivity: β-arrestin2 recruitment versus G protein signaling: selectively activate the recruitment of β-arrestin2

## COc1ccccc1CCCN1CC[C@H]2[C@@H](C1)c1cccc3c1N2CCC3 (single isomer, unassigned) [Compound I-18, 10-(3-(2-methoxyphenyl)propyl)-5,6,7a,8,9,10,11,11a-octahydro-4H-pyrido[3′,4′:4,5]pyrrolo[3,2,1-i]quinoline]
5-HT2A receptor [1]
  Ki: < 100 nM

## COc1ccccc1CCCN1CC[C@H]2[C@@H](C1)c1cccc3c1N2CCCN3C (single isomer, unassigned) [Compound I-14]
5-HT2A receptor [1]
  Ki: < 100 nM

## COc1ccccc1CCN1CC[C@H]2[C@@H](C1)c1cccc3c1N2CCN3C [Compound I-3]
Dopamine D2 receptor
  Ki: 1550 nM
5-HT2A receptor [1]
  Ki: < 100 nM
5-HT2A receptor [2]
  Emax: 39%
  Gq signaling agonistic activity (percentage in parentheses): 20.2%
[3]
  hallucinogenic effects (head-twitch response): did not induce hallucinogenic effects

## COc1ccccc1CCCN1CC[C@@H]2[C@H](C1)c1cccc3c1N2CCCN3C (single isomer, unassigned) [Compound I-15]
5-HT2A receptor [1]
  Ki: < 100 nM
5-HT2A receptor [2]
  EC50: 97.2 nM
  Emax: 24.3%

## COc1ccc(OC)c(CCN2CC[C@H]3[C@@H](C2)c2cccc4c2N3CCN4C)c1 [Compound I-8, (6bR,10aS)-8-(2,5-dimethoxy)-3-methyl-2,3,6b,7,8,9,10,10a-octahydro-1H-pyrido[3′,4′:4,5]pyrrolo[1,2,3-de]quinoxaline]
5-HT2A receptor [1]; [6]
  Ki: 3060 nM

## CN1CCN2c3c(cccc31)[C@@H]1CN(CCc3ccccc3O)CC[C@@H]12 [Compound I-9, 2-(2-((6bR,10aS)-3-methyl-2,3,6b,9,10,10a-hexahydro-1H-pyrido[3′,4′:4,5]pyrrolo[1,2,3-de]quinoxalin-8(7H)-yl)ethyl)phenol]
5-HT2A receptor [1]
  Ki: < 100 nM
5-HT2A receptor [1]; [6]
  Ki: 31 nM
5-HT2A receptor [2]
  EC50: 75.9 nM
  Emax: 14.4%

## COc1ccccc1CCCN1CC[C@@H]2[C@H](C1)c1cccc3c1N2CCCS3 [Compound I-27, (8aR,12aS)-11-(3-(2-methoxyphenyl)propyl)-6,7,8a,9,10,11,12,12a-octahydro-5H-pyrido[4,3-b][1,4]thiazepino[2,3,4-hi]indole]
5-HT2A receptor [1]
  Ki: < 100 nM
5-HT2A receptor [1]; [6]
  Ki: 8 nM
5-HT2A receptor [2]
  EC50: 878 nM
  Emax: 35.7%
  pathway selectivity: β-arrestin2 recruitment versus G protein signaling: selectively activate the recruitment of β-arrestin2

## CN1CCN2c3c(cccc31)[C@@H]1CN(Cc3ccccc3O)CC[C@@H]12 [Compound I-2]
5-HT2A receptor [2]
  Emax: 68.4%
  Gq signaling agonistic activity (percentage in parentheses): 65.3%
5-HT2A receptor [2]; [7]
  EC50: 309 nM
5-HT2A receptor [2]; [8]
  EC50: 229 nM

## COc1ccccc1CCCN1CC[C@H]2[C@@H](C1)c1cccc3c1N2CCCS3 (single isomer, unassigned) [Compound I-26]
5-HT2A receptor [1]
  Ki: < 100 nM
5-HT2A receptor [1]; [6]
  Ki: 93 nM

## COc1ccc(CCN2CC[C@H]3[C@@H](C2)c2cccc4c2N3CCN4C)cc1 [Compound I-5]
5-HT2A receptor [2]
  EC50: 684 nM
  Emax: 3.2%

## COc1ccccc1CCN1CC[C@H]2[C@@H](C1)c1cccc3c1N2CCCN3C (single isomer, unassigned) [Compound I-12]
5-HT2A receptor [1]
  Ki: < 100 nM
5-HT2A receptor [1]; [6]
  Ki: 190 nM

## CN1CCN2c3c(cccc31)[C@@H]1CN(CCCc3ccccc3O)CC[C@@H]12 [Compound I-11, 2-(3-((6bR,10aS)-3-methyl-2,3,6b,9,10,10a-hexahydro-1H-pyrido[3′,4′:4,5]pyrrolo[1,2,3-de]quinoxalin-8(7H)-yl)propyl)phenol]
5-HT2A receptor [1]
  Ki: < 100 nM
5-HT2A receptor [1]; [6]
  Ki: 89 nM
5-HT2A receptor [2]
  Emax: 36.8%
  Gq signaling agonistic activity (percentage in parentheses): 9.7%

## COc1ccccc1CN1CC[C@H]2[C@@H](C1)c1cccc3c1N2CCN3C [Compound I-1]
5-HT2A receptor [2]
  Emax: 60.2%
  Gq signaling agonistic activity (percentage in parentheses): 67.0%
5-HT2A receptor [2]; [7]
  EC50: 120 nM
5-HT2A receptor [2]; [8]
  EC50: 174 nM

## COc1cccc(CCN2CC[C@H]3[C@@H](C2)c2cccc4c2N3CCN4C)c1 [Compound I-4]
5-HT2A receptor [1]
  Ki: < 100 nM
5-HT2A receptor [2]
  Emax: 44.2%
  Gq signaling agonistic activity (percentage in parentheses): 13.7%

## COc1ccccc1CCCN1CC[C@@H]2[C@H](C1)c1cccc3c1N2CCC3 (single isomer, unassigned) [Compound I-19]
5-HT2A receptor [1]
  Ki: < 100 nM
5-HT2A receptor [1]; [6]
  Ki: 18 nM
5-HT2A receptor [2]
  EC50: 562 nM
  Emax: 59.4%
  pathway selectivity: β-arrestin2 recruitment versus G protein signaling: selectively activate the recruitment of β-arrestin2

## COc1ccccc1CCCN1CC[C@H]2[C@@H](C1)c1cccc3c1N2CCN3C [Compound I-10]
In vivo; 10 mg/kg
  AUC0-inf: 582 ng·h/mL
  AUC0-t: 576 ng·h/mL
  Cmax: 225 ng/mL and 566 ng/g
In vivo; 10 mg/kg, brain, 10 mg/kg IP, mice
  MRT: 1.53 h
In vivo; 10 mg/kg, plasma, 10 mg/kg IP, mice
  MRT: 2.11 h
In vivo; 10 mg/kg, T1/2, brain, 10 mg/kg IP, mice
  half-life: 0.801 h
In vivo; 10 mg/kg, T1/2, plasma, 10 mg/kg IP, mice
  half-life: 1.06 h
In vivo; 10 mg/kg, tmax, brain, 10 mg/kg IP, mice
  Tmax: 0.5 h
In vivo; 10 mg/kg, tmax, plasma, 10 mg/kg IP, mice
  Tmax: 0.083 h
Dopamine D2 receptor
  Ki: 1860 nM
5-HT2A receptor [1]
  Ki: < 100 nM
5-HT2A receptor [2]
  EC50: 204 nM
  Emax: 12.7%
[3]
  hallucinogenic effects (head-twitch response): did not induce hallucinogenic effects
[4]; brain, 10 mg/kg IP
  AUMC0-inf: 2054 h · h · ng · g^−1
  AUMC0-t: 1979 h · h · ng · g^−1
  Kel: 0.865 h⁻¹
[4]; mouse, in vivo, ip, 10 mg/kg
  AUC0-inf: 1346 ng·h/g
  AUC0-t: 1335 ng·h/g
[4]; plasma, 10 mg/kg IP
  AUMC0-inf: 1230 h · h · ng · mL^−1
  AUMC0-t: 1169 h · h · ng · mL^−1
  Kel: 0.654 h⁻¹

## COc1ccccc1CCCN1CC[C@@H]2[C@H](C1)c1cccc3c1N2CCO3 (single isomer, unassigned) [Compound I-23]
In vivo; 5 mg/kg
  AUC0-t: 537 ng·h/mL
  Cmax: 272 ng/mL and 1420 ng/g
  Tmax: 0.5 h
  MRT: 1.47 h
In vivo; 5 mg/kg, T1/2, brain, 5 mg/kg IP, mice
  half-life: 1.1 h
In vivo; 5 mg/kg, T1/2, plasma, 5 mg/kg IP, mice
  half-life: 1.02 h
[5]; 10 mg/kg single-injection group, after 7 days
  antidepressant effect in the mouse tail suspension test: remained significant
[5]; 10 mg/kg single-injection group, after 14 days
  antidepressant effect in the mouse tail suspension test: remained significant
[5]; one day after a single administration
  antidepressant effect in the mouse tail suspension test: significant antidepressant effect
[3]
  hallucinogenic effects (head-twitch response): did not induce hallucinogenic effects
[4]; brain, 5 mg/kg IP
  AUMC0-inf: 1698 h · h · ng · g^−1
  AUMC0-t: 1645 h · h · ng · g^−1
  Kel: 0.630 h⁻¹
[4]; male, C57, mouse, in vivo, ip, 5 mg/kg
  MRT: 0.932 h
[4]; mouse, in vivo, ip, 5 mg/kg
  AUC0-t: 1816 ng·h/g
[4]; plasma, 5 mg/kg IP
  AUMC0-inf: 794 h · h · ng · mL^−1
  AUMC0-t: 769 h · h · ng · mL^−1
  Kel: 0.678 h⁻¹
